The numbers were not newly measured in patent US20200230059A1, “Solid Micronized Melatonin Composition” (Physician's Seal, LLC, priority 2019, published 2020), which cites them from elsewhere.

SMILES strings stand for the structures. Read-outs that look alike come from different tables or passages of the source.

Take `COc1ccc2[nH]cc(CCNC(C)=O)c2c1` [Melatonin]: the solubility result is, setting by setting: (gastric environment, pH approximately 1 to 3) “relatively high”; (lower GI tract environment, pH approximately 5.5 to 7) “decreases even further”; (upper GI tract environment, pH approximately 4.5 to 5.5) “decreases”.
